Laboratory results as given in patent US10981917B2, “Heterocyclic compound, its preparation method, and pharmaceutical composition comprising the same” (Daewoong Pharmaceutical Co., Ltd., priority 2017, dated 2021).

Biological target: PRS (prolyl-tRNA synthetase) protein, PRS portion of EPRS (Homo sapiens (Human), UniProt P07814)
Experiment: PRS enzyme activity inhibition experiment ([3H]proline, liquid scintillation)
Format: biochemical
Settings: purified PRS protein, 37° C. for 5 to 10 minutes
Description: In order to confirm the biological activities of the compounds prepared in Examples, % inhibition or IC50 values of PRS enzyme ([…]) activities were calculated.
Specifically, the portion corresponding to PRS in cDNA of EPRS was subcloned, and the obtained high-purity PRS protein was purified and used in the experiment. The compounds (1 μM) prepared in Examples were added into the reaction buffer (20 mM KPO4 (pH 7.4), 6 mM MgAc, 5 mM ATP, […] tRNA, 0.5 mM DTT, […][^3H]proline (1 mCi/mL)) and allowed to react at 37° C. for 5 to 10 minutes. The reaction was terminated with 3M paper that was in advance dried by addition of 5% TCA. The radioactivity was measured using a liquid scintillation counter.
% Inhibition and IC50 values of the respective compounds were calculated and analyzed using Microsoft Excel or Sigma Plot 8.0. In Tables 1 to 3, the results are divided into A, B and C according to the range of IC50. The case where the derived IC50 is 100 nM or less is represented by “A”, the case where the IC50 is 100 to 500 nM is represented by “B”, and the case where the IC50 is 500 nM or higher is represented by “C”.

PRS (prolyl-tRNA synthetase) protein, PRS portion of EPRS, sequence (P07814 1007-1512): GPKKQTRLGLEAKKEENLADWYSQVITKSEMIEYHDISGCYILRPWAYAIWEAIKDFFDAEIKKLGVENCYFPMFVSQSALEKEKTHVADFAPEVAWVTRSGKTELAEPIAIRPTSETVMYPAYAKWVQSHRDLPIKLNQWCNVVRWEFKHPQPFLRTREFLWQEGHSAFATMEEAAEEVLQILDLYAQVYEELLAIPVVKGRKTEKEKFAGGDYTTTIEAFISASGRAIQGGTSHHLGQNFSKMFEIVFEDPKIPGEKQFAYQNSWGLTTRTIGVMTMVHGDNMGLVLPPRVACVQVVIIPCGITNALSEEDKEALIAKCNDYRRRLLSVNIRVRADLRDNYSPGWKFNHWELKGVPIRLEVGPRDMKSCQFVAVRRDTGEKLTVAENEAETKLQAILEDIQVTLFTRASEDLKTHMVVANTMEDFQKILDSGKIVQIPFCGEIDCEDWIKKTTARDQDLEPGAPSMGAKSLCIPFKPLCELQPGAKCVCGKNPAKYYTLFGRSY

SMILES | IC50 [nM]
Cc1ccc2c(ncn2CCC[C@H]2NCCC[C@@H]2O)c1Cl [Example 44, (2R,3S)-2-(3-(4-chloro-5-methyl-1H-benzo[d]imidazol-1-yl)propyl)piperidin-3-ol] | 100 to 500
Cc1c(Br)ccc2c1ncn2CCC[C@H]1NCCC[C@@H]1O [Example 45, (2R,3S)-2-(3-(5-bromo-4-methyl-1H-benzo[d]imidazol-1-yl)propyl)piperidin-3-ol] | 100 to 500
Cc1c(Cl)ccc2c1ncn2CCC[C@H]1NCCC[C@@H]1O [Example 46, (2R,3S)-2-(3-(5-chloro-4-methyl-1H-benzo[d]imidazol-1-yl)propyl)piperidin-3-ol] | ≤ 100
O[C@H]1CCCN[C@@H]1CCCn1cnc2c(F)c(Br)ccc21 [Example 47, (2R,3S)-2-(3-(5-bromo-4-fluoro-1H-benzo[d]imidazol-1-yl)propyl)piperidin-3-ol] | 100 to 500
O[C@H]1CCCN[C@@H]1CCCn1cnc2ccc(Br)c(F)c21 [Example 48, (2R,3S)-2-(3-(6-bromo-7-fluoro-1H-benzo[d]imidazol-1-yl)propyl)piperidin-3-ol] | 100 to 500
O[C@H]1CCCN[C@@H]1CCCn1cnc2c(F)c(F)ccc21 [Example 49, (2R,3S)-2-(3-(4,5-difluoro-1H-benzo[d]imidazol-1-yl)propyl)piperidin-3-ol] | 100 to 500
O[C@H]1CCCN[C@@H]1CCCn1cnc2ccc(F)c(F)c21 [Example 50, (2R,3S)-2-(3-(6,7-difluoro-1H-benzo[d]imidazol-1-yl)propyl)piperidin-3-ol] | 100 to 500
Cc1ccc2c(ncn2CCC[C@H]2NCCC[C@@H]2O)c1C [Example 51, (2R,3S)-2-(3-(4,5-dimethyl-1H-benzo[d]imidazol-1-yl)propyl)piperidin-3-ol] | ≥ 500
O[C@H]1CCCN[C@@H]1CCCn1cnc2cc(F)c(F)cc21 [Example 52, (2R,3S)-2-(3-(5,6-difluoro-1H-benzo[d]imidazol-1-yl)propyl)piperidin-3-ol] | 100 to 500
O[C@H]1CCCN[C@@H]1CCCn1cnc2cc(Cl)c(Cl)cc21 [Example 53, (2R,3S)-2-(3-(5,6-dichloro-1H-benzo[d]imidazol-1-yl)propyl)piperidin-3-ol] | 100 to 500
O[C@H]1CCCN[C@@H]1CCCn1cnc2cc(Br)c(Br)cc21 [Example 54, (2R,3S)-2-(3-(5,6-dibromo-1H-benzo[d]imidazol-1-yl)propyl)piperidin-3-ol] | ≥ 500
Cc1cc2ncn(CCC[C@H]3NCCC[C@@H]3O)c2cc1C [Example 55, (2R,3S)-2-(3-(5,6-dimethyl-1H-benzo[d]imidazol-1-yl)propyl)piperidin-3-ol] | ≥ 500
O[C@H]1CCCN[C@@H]1CCCn1cnc2ccc(Cl)c(Cl)c21 [Example 56, (2R,3S)-2-(3-(6,7-dichloro-1H-benzo[d]imidazol-1-yl)propyl)piperidin-3-ol] | 100 to 500
O[C@H]1CCCN[C@@H]1CCCn1cnc2c(F)cc(F)cc21 [Example 57, (2R,3S)-2-(3-(4,6-difluoro-1H-benzo[d]imidazol-1-yl)propyl)piperidin-3-ol] | ≥ 500
O[C@H]1CCCN[C@@H]1CCCn1cnc2cc(F)cc(F)c21 [Example 58, (2R,3S)-2-(3-(5,7-difluoro-1H-benzo[d]imidazol-1-yl)propyl)piperidin-3-ol] | ≤ 100
COc1ccc2c(ncn2CCC[C@H]2NCCC[C@@H]2O)c1Cl [Example 59, (2R,3S)-2-(3-(4-chloro-5-methoxy-1H-benzo[d]imidazol-1-yl)propyl)piperidin-3-ol] | 100 to 500
COc1ccc2ncn(CCC[C@H]3NCCC[C@@H]3O)c2c1Cl [Example 60, (2R,3S)-2-(3-(7-chloro-6-methoxy-1H-benzo[d]imidazol-1-yl)propyl)piperidin-3-ol] | 100 to 500
Cc1cc(Cl)cc2c1ncn2CCC[C@H]1NCCC[C@@H]1O [Example 61, (2R,3S)-2-(3-(6-chloro-4-methyl-1H-benzo[d]imidazol-1-yl)propyl)piperidin-3-ol] | ≤ 100
O[C@H]1CCCN[C@@H]1CCCn1cnc2c(Cl)c(F)ccc21 [Example 62, (2R,3S)-2-(3-(4-chloro-5-fluoro-1H-benzo[d]imidazol-1-yl)propyl)piperidin-3-ol] | 100 to 500
Cc1cc(Br)cc2c1ncn2CCC[C@H]1NCCC[C@@H]1O [Example 63, (2R,3S)-2-(3-(6-bromo-4-methyl-1H-benzo[d]imidazol-1-yl)propyl)piperidin-3-ol] | ≤ 100

SMILES | IC50 [nM]
Cc1c(F)ccc2c1ncn2CCC[C@H]1NCCC[C@@H]1O [Example 64, (2R,3S)-2-(3-(5-fluoro-4-methyl-1H-benzo[d]imidazol-1-yl)propyl)piperidin-3-ol] | ≤ 100
Cc1c(F)ccc2ncn(CCC[C@H]3NCCC[C@@H]3O)c12 [Example 65, (2R,3S)-2-(3-(6-fluoro-7-methyl-1H-benzo[d]imidazol-1-yl)propyl)piperidin-3-ol] | 100 to 500
O[C@H]1CCCN[C@@H]1CCCn1cnc2c(Cl)c(C(F)(F)F)ccc21 [Example 66, (2R,3S)-2-(3-(4-chloro-5-(trifluoromethyl)-1H-benzo[d]imidazol-1-yl)propyl)piperidin-3-ol] | ≥ 500
O[C@H]1CCCN[C@@H]1CCCn1cnc2ccc(C(F)(F)F)c(Cl)c21 [Example 67, (2R,3S)-2-(3-(7-chloro-6-(trifluoromethyl)-1H-benzo[d]imidazol-1-yl)propyl)piperidin-3-ol] | ≤ 100
COC(=O)c1cc(Br)c2c(c1)ncn2CCC[C@H]1NCCC[C@@H]1O [Example 68, methyl 7-bromo-1-(3-((2R,3S)-3-hydroxypiperidin-2-yl)propyl)-1H-benzo[d]imidazole-5-carboxylate] | ≥ 500
O[C@H]1CCCN[C@@H]1CCCn1cnc2cc(Cl)cc(Br)c21 [Example 69, (2R,3S)-2-(3-(7-bromo-5-chloro-1H-benzo[d]imidazol-1-yl)propyl)piperidin-3-ol] | ≤ 100
O[C@H]1CCCN[C@@H]1CCCn1cnc2cc(Br)cc(Cl)c21 [Example 70, (2R,3S)-2-(3-(5-bromo-7-chloro-1H-benzo[d]imidazol-1-yl)propyl)piperidin-3-ol] | ≤ 100
O[C@H]1CCCN[C@@H]1CCCn1cnc2cc(C(F)(F)F)cc(Br)c21 [Example 71, (2R,3S)-2-(3-(7-bromo-5-(trifluoromethyl)-1H-benzo[d]imidazol-1-yl)propyl)piperidin-3-ol] | 100 to 500
O[C@H]1CCCN[C@@H]1CCCn1cnc2c(F)cc(Br)cc21 [Example 72, (2R,3S)-2-(3-(6-bromo-4-fluoro-1H-benzo[d]imidazol-1-yl)propyl)piperidin-3-ol] | 100 to 500
O[C@H]1CCCN[C@@H]1CCCn1cnc2cc(Br)cc(F)c21 [Example 73, (2R,3S)-2-(3-(5-bromo-7-fluoro-1H-benzo[d]imidazol-1-yl)propyl)piperidin-3-ol] | 100 to 500
O[C@H]1CCCN[C@@H]1CCCn1cnc2c(F)ccc(Cl)c21 [Example 74, (2R,3S)-2-(3-(7-chloro-4-fluoro-1H-benzo[d]imidazol-1-yl)propyl)piperidin-3-ol] | 100 to 500
O=[N+]([O-])c1c(Br)ccc2c1ncn2CCC[C@H]1NCCC[C@@H]1O [Example 75, (2R,3S)-2-(3-(5-bromo-4-nitro-1H-benzo[d]imidazol-1-yl)propyl)piperidin-3-ol] | ≥ 500
O=[N+]([O-])c1c(Br)ccc2ncn(CCC[C@H]3NCCC[C@@H]3O)c12 [Example 76, (2R,3S)-2-(3-(6-bromo-7-nitro-1H-benzo[d]imidazol-1-yl)propyl)piperidin-3-ol] | ≥ 500
O=[N+]([O-])c1ccc2c(ncn2CCC[C@H]2NCCC[C@@H]2O)c1Cl [Example 77, (2R,3S)-2-(3-(4-chloro-5-nitro-1H-benzo[d]imidazol-1-yl)propyl)piperidin-3-ol] | 100 to 500
O[C@H]1CCCN[C@@H]1CCCn1cnc2cc(C(F)(F)F)cc(Cl)c21 [Example 78, (2R,3S)-2-(3-(7-chloro-5-(trifluoromethyl)-1H-benzo[d]imidazol-1-yl)propyl)piperidin-3-ol] | 100 to 500
O[C@H]1CCCN[C@@H]1CCCn1cnc2cc(Cl)cc(F)c21 [Example 79, (2R,3S)-2-(3-(5-chloro-7-fluoro-1H-benzo[d]imidazol-1-yl)propyl)piperidin-3-ol] | ≤ 100
O[C@H]1CCCN[C@@H]1CCCn1cnc2cc(Cl)cc(Cl)c21 [Example 80, (2R,3S)-2-(3-(5,7-dichloro-1H-benzo[d]imidazol-1-yl)propyl)piperidin-3-ol] | ≤ 100
O[C@H]1CCCN[C@@H]1CCCn1cnc2cc(Cl)cc(-c3cn[nH]c3)c21 [Example 81, (2R,3S)-2-(3-(5-chloro-7-(1H-pyrazol-4-yl)-1H-benzo[d]imidazol-1-yl)propyl)piperidin-3-ol] | ≥ 500
O[C@H]1CCCN[C@@H]1CCCn1cnc2cc(C(F)(F)F)cc(-c3cn[nH]c3)c21 [Example 82, (2R,3S)-2-(3-(7-(1H-pyrazol-4-yl)-5-(trifluoromethyl)-1H-benzo[d]imidazol-1-yl)propyl)piperidin-3-ol] | ≥ 500
O[C@H]1CCCN[C@@H]1CCCn1cnc2cc(Cl)cc(-c3cccc(F)c3)c21 [Example 83, (2R,3S)-2-(3-(5-chloro-7-(3-fluorophenyl)-1H-benzo[d]imidazol-1-yl)propyl)piperidin-3-ol] | ≤ 100
